Usually IC50 stands for the concentration needed to halve the response being measured.

For the assay, the target named is T1, Ubiquitin carboxyl-terminal hydrolase 19 (Homo sapiens, UniProt O94966).
T1 sequence (O94966 whole entry): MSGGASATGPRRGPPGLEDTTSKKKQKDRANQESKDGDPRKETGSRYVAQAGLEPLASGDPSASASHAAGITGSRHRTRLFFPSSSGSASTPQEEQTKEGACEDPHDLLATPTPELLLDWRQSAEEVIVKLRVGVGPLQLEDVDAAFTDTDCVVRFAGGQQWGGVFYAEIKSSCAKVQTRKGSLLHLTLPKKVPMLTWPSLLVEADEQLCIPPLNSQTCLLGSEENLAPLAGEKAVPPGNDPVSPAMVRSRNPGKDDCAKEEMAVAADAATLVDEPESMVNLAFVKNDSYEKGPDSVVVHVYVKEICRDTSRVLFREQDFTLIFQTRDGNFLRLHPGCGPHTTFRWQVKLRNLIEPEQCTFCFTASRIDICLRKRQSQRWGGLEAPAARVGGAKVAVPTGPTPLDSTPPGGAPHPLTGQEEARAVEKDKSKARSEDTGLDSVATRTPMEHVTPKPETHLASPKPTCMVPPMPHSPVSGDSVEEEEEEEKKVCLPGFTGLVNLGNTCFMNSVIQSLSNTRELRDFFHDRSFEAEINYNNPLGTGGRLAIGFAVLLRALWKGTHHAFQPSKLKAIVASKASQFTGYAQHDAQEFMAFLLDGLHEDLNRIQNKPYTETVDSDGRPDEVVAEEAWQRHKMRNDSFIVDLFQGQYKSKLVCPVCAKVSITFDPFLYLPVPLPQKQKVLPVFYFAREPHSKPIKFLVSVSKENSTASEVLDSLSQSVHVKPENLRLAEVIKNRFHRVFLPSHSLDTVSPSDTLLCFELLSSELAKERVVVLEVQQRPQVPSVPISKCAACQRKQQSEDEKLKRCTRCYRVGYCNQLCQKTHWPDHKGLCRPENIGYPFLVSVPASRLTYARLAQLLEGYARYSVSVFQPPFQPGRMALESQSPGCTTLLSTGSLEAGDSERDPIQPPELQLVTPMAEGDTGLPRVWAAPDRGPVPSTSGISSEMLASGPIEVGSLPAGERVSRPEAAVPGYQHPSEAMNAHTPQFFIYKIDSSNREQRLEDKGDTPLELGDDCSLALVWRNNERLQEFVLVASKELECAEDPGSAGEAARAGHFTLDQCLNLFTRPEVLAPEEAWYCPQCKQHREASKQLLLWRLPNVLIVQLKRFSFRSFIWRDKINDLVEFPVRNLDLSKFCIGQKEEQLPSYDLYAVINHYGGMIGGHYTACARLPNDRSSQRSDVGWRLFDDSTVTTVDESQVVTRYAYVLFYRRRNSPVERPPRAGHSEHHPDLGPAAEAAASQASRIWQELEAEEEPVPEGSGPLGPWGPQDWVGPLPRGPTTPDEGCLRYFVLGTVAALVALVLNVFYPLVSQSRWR
Nature of the assay: Inhibition of C-terminal His6-tagged recombinant human USP19 using iso-peptide ubiquitin-Lys-TAMRA as substrate incubated for 30 mins and measured after 90 mins by fluorescent polarization assay.

With `CSc1cn(CC2(O)CCN(C(=O)[C@H](C)CC3CCCCC3)CC23CCCC3)c(=O)cc1-c1ccccc1` (some centres not stated), the IC50 was below 500 nM.
Take `O=C(N1CC[C@@](O)(Cn2cnc(-c3ccc4c(c3)OCC4)cc2=O)C2(CCCC2)C1)N1CCNC[C@H]1c1ccccc1`: the half-maximal inhibitory concentration (IC50) is below 500 nM.
As for `CN(C)C(=O)c1cn(CC2(O)CCN(C(=O)NCc3ccccc3)CC23CCCC3)c(=O)cc1-c1ccccc1` (configuration not stated), the figure is below 500 nM; as for `C[C@H](CC1CCCCC1)C(=O)N1CCC(O)(CN2CCOCC2=O)C2(CCCC2)C1` (some centres not stated), below 500 nM.
To `O=C(N1CC[C@@](O)(Cn2cnc(-c3ccccc3)cc2=O)C2(CCCC2)C1)N1CCNC[C@H]1c1ccc(F)cc1` belongs below 500 nM; to `O=C(N1CCC(O)(Cn2cnc(-c3ccccc3)cc2=O)C2(CCCC2)C1)N1CCOCC1c1cccs1` (configuration not stated), below 500 nM.
To `O=C(N1CC[C@@](O)(Cn2cnc(N3CCCCC3)cc2=O)C2(CCCC2)C1)N1CCNC[C@H]1c1ccccc1` belongs below 500 nM.
Consider `O=C(N1CC[C@@](O)(Cn2cnc(N3CC4CC4C3)cc2=O)C2(CCCC2)C1)N1CCNC[C@H]1c1cc(F)ccc1F` (some centres not stated), for which the IC50 is below 500 nM.
For the compound `Cn1nccc1-c1cc(=O)n(C[C@]2(O)CCN(C(=O)N3CCOC[C@H]3c3ccc(F)cc3)CC23CCCC3)cn1`, the half-maximal inhibitory concentration (IC50) was below 500 nM.
As for `O=C(NCC1CC(F)(F)C1)N1CC[C@@](O)(Cn2cnc(-c3ccccc3)cc2=O)C2(CCCC2)C1`, the figure is below 500 nM; as for `COc1c(F)cccc1-c1cc(=O)n(C[C@]2(O)CCN(C(=O)N3CCNC[C@H]3c3ccccc3)CC23CCCC3)cn1`, below 500 nM.
For `CN(C)C(=O)C1CN(C[C@]2(O)CCN(C(=O)[C@H](CO)CC3CCCCC3)CC2(C)C)C(=O)CC1c1ccccc1` (some centres not stated), the IC50 is below 500 nM.
As for `O=C(N1CC[C@@](O)(Cn2cnc(Cl)cc2=O)C2(CCCC2)C1)N1CCOC[C@H]1c1ccccc1`, the figure is below 500 nM; as for `O=C(N1CCC(O)(Cn2cnc(-c3ccccc3)cc2=O)C2(CCOCC2)C1)N1CCOC[C@H]1c1ccccc1` (some centres not stated), below 500 nM.
In the case of `Cn1ccc(-c2cc(=O)n(C[C@]3(O)CCN(C(=O)N4CCNC[C@H]4c4ccccc4)CC34CCCC4)cn2)n1`, the IC50 was below 500 nM.
As for `O=C(N1CC[C@@](O)(Cn2cnc(-c3ccccc3)cc2=O)C2(CCCC2)C1)N1CCNC[C@H]1c1cc(F)ccc1F`, the figure is below 500 nM; as for `O=C(N1CC[C@@](O)(Cn2cnc(-c3ccccc3)cc2=O)C2(CCCC2)C1)N1CCS(=O)(=O)CC1c1ccccc1` (some centres not stated), below 500 nM.
To `C[C@H](CC1CCCCC1)C(=O)N1CCC(O)(Cn2ccc3ccncc3c2=O)C2(CCCC2)C1` (some centres not stated) belongs below 500 nM; to `O=C(N1CC[C@@](O)(Cn2cnc(-c3ccccc3F)cc2=O)C2(CCCC2)C1)N1CCNC[C@H]1c1cc(F)ccc1F`, below 500 nM; to `COc1ccc2c(=O)n(CC3(O)CCN(C(=O)[C@H](C)CC4CCCCC4)CC34CCCC4)ccc2c1` (some centres not stated), at most 5000 nM.
As for `O=C(N1CC[C@@](O)(Cn2ccc(Cl)cc2=O)C2(CCCC2)C1)N1CCNC[C@H]1c1ccccc1`, the figure is below 500 nM; as for `O=C(N1CCC(O)(Cn2ncc(-c3ccccc3)cc2=O)C2(CCCC2)C1)N1CCOC[C@H]1c1ccccc1` (some centres not stated), below 500 nM; as for `O=C(N1CC[C@@](O)(Cn2cnc(-c3ccc(OC4CC4)cc3)cc2=O)C2(CCCC2)C1)N1CCNC[C@H]1c1ccccc1`, below 500 nM.
On to `CC(=O)N1CCN(CC2(O)CCN(C(=O)[C@H](C)CC3CCCCC3)CC23CCCC3)C(=O)C1` (some centres not stated), for which the IC50 was below 500 nM.
As for `O=C(N1CC[C@@](O)(Cn2cnc(-c3ccc4c(c3)COC4)cc2=O)C2(CCCC2)C1)N1CCNC[C@H]1c1ccccc1`, the figure is below 500 nM; as for `C[C@H](CC1CCCCC1)C(=O)N1CCC(O)(Cn2cnc3ccc(Cl)cc3c2=O)C2(CCCC2)C1` (some centres not stated), below 500 nM; as for `CSc1ncc2c(=O)n(CC3(O)CCN(C(=O)[C@H](C)CC4CCCCC4)CC34CCCC4)ccc2n1` (some centres not stated), below 500 nM.
As for `CC1(C)CN(C(=O)N2CCOC[C@H]2c2ccccc2)CC[C@@]1(O)Cn1ccc(-c2ccccc2)cc1=O`, the IC50 was below 500 nM.
Take `O=C(NCc1ccccc1)N1CCC(O)(Cn2ccc(-c3ccccc3)cc2=O)C2(CCCC2)C1` (configuration not stated): the IC50 was below 500 nM.
As for `O=C(N1CC[C@@](O)(Cn2cnc(-c3ccccc3)cc2=O)C2(CCCC2)C1)N1CCSCC1c1ccccc1` (some centres not stated), the figure is below 500 nM; as for `O=C(N1CCC(O)(Cn2cnc3cc(F)c(F)cc3c2=O)C2(CCCC2)C1)N1CCNC[C@H]1c1ccccc1` (some centres not stated), below 500 nM; as for `COc1cccc(-c2cc(=O)n(C[C@]3(O)CCN(C(=O)N4CCNC[C@H]4c4ccccc4)CC34CCCC4)cn2)c1`, below 500 nM.
Consider `C[C@H](CC1CCCCC1)C(=O)N1CCC(O)(Cn2cc([S+](C)[O-])c(-c3ccccc3)cc2=O)C2(CCCC2)C1` (some centres not stated), for which the IC50 is below 500 nM.
As for `O=C(N1CCC(O)(Cn2cnc(-c3ccccc3)cc2=O)C2(CCC2)C1)N1CCNC[C@H]1c1ccccc1` (some centres not stated), the figure is below 500 nM; as for `CC1(C)CN(C(=O)N2CCNC[C@H]2c2ccccc2)CC[C@@]1(O)Cn1cnc(-c2ccccc2)cc1=O`, below 500 nM.
As to `O=C(N1CC[C@@](O)(Cn2ccc(-c3ccccc3F)cc2=O)C2(CCCC2)C1)N1CCNC[C@H]1c1cccc(F)c1`, the IC50 was below 500 nM.
As for `O=C(N1CC[C@@](O)(Cn2cnc(-c3ccc4c(c3)CCO4)cc2=O)C2(CCCC2)C1)N1CCNC[C@H]1c1ccccc1`, the figure is below 500 nM.
As for `C[C@H](CC1CCCCC1)C(=O)N1CCC(O)(Cn2cc(C(=O)N(C)C)ncc2=O)C2(CCCC2)C1` (some centres not stated), the figure is below 500 nM; as for `O=C(N1CC[C@@](O)(Cn2cnc(-c3ccccc3)cc2=O)C2(CCCC2)C1)N1CCC[C@H]1c1ccccc1`, below 500 nM.
As to `N=S1(=O)CCN(C(=O)N2CC[C@@](O)(Cn3cnc(-c4ccccc4)cc3=O)C3(CCCC3)C2)[C@H](c2cc(F)ccc2F)C1` (some centres not stated), the IC50 is below 500 nM.
As for `C[C@H](CC1CCCCC1)C(=O)N1CCC(O)(Cn2cc(S(C)(=N)=O)c(-c3ccccc3)cc2=O)C2(CCCC2)C1` (some centres not stated), the figure is below 500 nM.
To `CN(C)C(=O)c1cn(CC2(O)CCN(C(=O)N(C)CC3CCCCC3)CC23CCCC3)c(=O)cc1-c1ccccc1` (configuration not stated) belongs below 500 nM; to `O=C(N1CCC(O)(Cn2cnc3c(cnn3-c3ccccc3)c2=O)C2(CCCC2)C1)N1CCNC[C@H]1c1ccccc1` (some centres not stated), below 500 nM; to `O=C(N1CC[C@@](O)(Cn2ccc(-c3ccccc3)cc2=O)C2(CCCC2)C1)N1CCNC[C@H]1c1ccccc1`, below 500 nM.
As for `O=C(N1CC[C@@](O)(Cn2cnc(-c3ccc(F)cc3)cc2=O)C2(CCCC2)C1)N1CCNC[C@H]1c1ccccc1`, the figure is below 500 nM.
Take `O=C(N1CCC(O)(Cn2ccc3ccncc3c2=O)C2(CCCC2)C1)N1CCNC[C@H]1c1ccccc1` (some centres not stated): the 50% inhibitory concentration (IC50) is below 500 nM.
To `O=C(N1CC[C@@](O)(Cn2cnc(-c3ccccc3)cc2=O)C2(CCCC2)C1)N1CCNCC1c1ccsc1` (some centres not stated) belongs below 500 nM.
With `COc1ccc(-c2cc(=O)n(C[C@]3(O)CCN(C(=O)N4CCNC[C@H]4c4ccccc4)CC34CCCC4)cn2)s1`, the IC50 is below 500 nM.
As for `O=C(N1CC[C@@](O)(Cn2cnc(-c3cccs3)cc2=O)C2(CCCC2)C1)N1CCNC[C@H]1c1ccccc1`, the figure is below 500 nM.
Take `O=C(N1CC[C@@](O)(Cn2cnc(-c3ccccc3OC3CC3)cc2=O)C2(CCCC2)C1)N1CCNC[C@H]1c1ccccc1`: the IC50 is below 500 nM.
For the compound `CC1(C)CN(C(=O)N2CCNC[C@H]2c2ccccc2)CC[C@@]1(O)Cn1ccc(-c2ccccc2)cc1=O`, the IC50 was below 500 nM.
With `CN(C)C(=O)c1cn(CC2(O)CCN(C(=O)N(C)Cc3ccccc3)CC23CCCC3)c(=O)cc1-c1ccccc1` (configuration not stated), the IC50 is below 500 nM.
To `O=C(N1CCC(O)(Cn2cnc(-c3ccccc3)cc2=O)CC1)N1CCNC[C@H]1c1ccccc1` belongs below 500 nM; to `O=C(N1CC[C@@](O)(Cn2cnc(-c3ccccc3)cc2=O)C2(CCCC2)C1)N1CCOC[C@H]1c1ccccc1`, below 500 nM; to `O=C(N1CC[C@@](O)(Cn2cnc(-c3ccccc3)cc2=O)C2(CCCC2)C1)N1CCNCC1c1ccc(F)c(F)c1` (some centres not stated), below 500 nM.
In the case of `O=C(NCc1cccc(F)c1F)N1CC[C@@](O)(Cn2cnc(-c3ccccc3)cc2=O)C2(CCCC2)C1`, the IC50 was below 500 nM.
To `O=C(N1CC[C@@](O)(Cn2cnc(-c3ccccc3)cc2=O)C2(CCCC2)C1)N1CCNCC1c1ccc(C(F)(F)F)cc1` (some centres not stated) belongs below 500 nM.

For the origin of these results see ChEMBL document CHEMBL5052842, “Pharmaceutical compounds and their use as inhibitors of ubiquitin specific protease 19 (usp19)” (2020).
